Consider ten compounds from patent publication US12459922B2 (Gilead Sciences, Inc., priority 2022, dated 2025).

The structures appear in SMILES notation.

For the assay, the system named is endogenous cellular STAT1 (phosphorylated at Tyr701) in NCI-H1373 cells. Nature of the assay: Phospho-STAT1 (Tyr701) LANCE Ultra TR-FRET Detection Assay. The assay is classed as cell-based. Particulars: Homo sapiens, NCI-H1373, 48 h, phospho-STAT1 (Tyr701) induction, read-out: NH1373 pSTAT1 EC50.
Take `C[C@@H](CCCn1ccc2cc(-c3ccc(C(F)(F)CO)cn3)c(F)cc2c1=O)Nc1cn[nH]c(=O)c1C(F)(F)F` [Example 75, 6-[5-(1,1-difluoro-2-hydroxy-ethyl)-2-pyridyl]-7-fluoro-2-[(4S)-4-[[6-oxo-5-(trifluoromethyl)-1H-pyridazin-4-yl]amino]pentyl]isoquinolin-1-one]: the EC50 amounted to 54.2 nM.
Take `COc1cnc(-c2cc3ncn(CCC[C@H](C)Nc4cn[nH]c(=O)c4C(F)(F)F)c(=O)c3cc2F)nc1N1CC(F)(F)C1` [Example 211]: the concentration for a half-maximal effect (EC50) amounted to 28.3 nM.
For the compound `CC(C)(CCCn1ccc2cc(-c3ncc(C(F)(F)F)c(N)n3)c(F)cc2c1=O)Nc1cn[nH]c(=O)c1C(F)(F)F` [Example 137, 6-(4-amino-5-(trifluoromethyl)pyrimidin-2-yl)-7-fluoro-2-(4-methyl-4-((6-oxo-5-(trifluoromethyl)-1,6-dihydropyridazin-4-yl)amino)pentyl)isoquinolin-1(2H)-one], the EC50 stood at 50.6 nM.
The figure for `COc1cnc(-c2cc3ccn(CCC[C@H](C)Nc4cn[nH]c(=O)c4C(F)(F)F)c(=O)c3cc2F)nc1N1CCC1` [Example 186, (S)-6-(4-(azetidin-1-yl)-5-methoxypyrimidin-2-yl)-7-fluoro-2-(4-((6-oxo-5-(trifluoromethyl)-1,6-dihydropyridazin-4-yl)amino)pentyl)isoquinolin-1(2H)-one] is 66.1 nM; for `C[C@@H](CCCn1cnc2cc(-c3cnc(C(F)(F)F)c(N)n3)c(F)cc2c1=O)Nc1cn[nH]c(=O)c1C(F)(F)F` [Example 337, (S)-7-(6-amino-5-(trifluoromethyl)pyrazin-2-yl)-6-fluoro-3-(4-((6-oxo-5-(trifluoromethyl)-1,6-dihydropyridazin-4-yl)amino)pentyl)quinazolin-4(3H)-one] it is 36.6 nM.
`O=c1[nH]ncc(N[C@@H](CO)CCCn2ccc3cc(-c4ncc(C(F)(F)F)cn4)c(F)cc3c2=O)c1C(F)(F)F` [Example 88, 7-fluoro-2-[(4R)-5-hydroxy-4-[[6-oxo-5-(trifluoromethyl)-1H-pyridazin-4-yl]amino]pentyl]-6-[5-(trifluoromethyl)pyrimidin-2-yl]isoquinolin-1-one]: the EC50 was 86.2 nM.
With `O=c1[nH]ncc(N[C@H]2CCC[C@@H](Cn3ccc4cc(-c5cnc(C(F)F)cn5)c(F)cc4c3=O)C2)c1C(F)(F)F` [Example 258, 6-(5-(difluoromethyl)pyrazin-2-yl)-7-fluoro-2-(((1R,3S)-3-((6-oxo-5-(trifluoromethyl)-1,6-dihydropyridazin-4-yl)amino)cyclohexyl)methyl)isoquinolin-1(2H)-one] the figure was 31.7 nM; with `C[C@@H](CCCn1ccc2cc(-c3nc(N)ncc3C(F)F)c(F)cc2c1=O)Nc1cn[nH]c(=O)c1C(F)(F)F` [Example 105, 6-[2-amino-5-(difluoromethyl)pyrimidin-4-yl]-7-fluoro-2-[(4S)-4-[[6-oxo-5-(trifluoromethyl)-1H-pyridazin-4-yl]amino]pentyl]isoquinolin-1-one], 465 nM.
The figure for `O=c1[nH]ncc(N[C@H]2CCCC[C@@H]2CCn2ccc3cc(-c4ncc(C(F)(F)F)cn4)c(F)cc3c2=O)c1C(F)(F)F` [Example 450, 7-fluoro-2-[2-[(1R,2S)-2-[[6-oxo-5-(trifluoromethyl)-1H-pyridazin-4-yl]amino]cyclohexyl]ethyl]-6-[5-(trifluoromethyl)pyrimidin-2-yl]isoquinolin-1-one] is 11.4 nM; for `CCOc1ccc(-c2cc3ccn(CCC[C@H](C)Nc4cn[nH]c(=O)c4C(F)(F)F)c(=O)c3cc2F)nc1N` [Example 193, (S)-6-(6-amino-5-ethoxypyridin-2-yl)-7-fluoro-2-(4-((6-oxo-5-(trifluoromethyl)-1,6-dihydropyridazin-4-yl)amino)pentyl)isoquinolin-1(2H)-one] it is 22.3 nM.
